Source: US20130231291A1, “FERMENTED SOYA BASED MIXTURE COMPRISING ISOFLAVONES- AGLICONES, EQUOL AND LUNASIL, PROCESS FOR THE PREPARATION AND USES THEREOF IN FOOD, MEDICAL AND COSMETIC FIELDS” (priority 2010, published 2013)

Tests used:
Type in all cases: cell-based, human
[1] = test system: interleukin-8 (IL-8) from Caco-2/TC7 cells; assay: Interleukin-8 release by ELISA after IL-1β stimulation; settings: IL-1β 2 ng/ml for 24 h, then 24 h treatment at 10 μM (soya milk: equol 10 μM)
Method: DMEM culture medium containing DMSO (1%, v/v) or methanol (0.5%, v/v) has been used as negative control. Data are the average of three triplicate experiments. Asterisk indicates meaningful differences (P<0.01) compared to negative control.
For measurement of released interleukin-8 (IL-8) Caco-2/TC7 cells have previously been incubated (24 h) with interleukin-1β and then stimulated for further 24 h with the different preparations. The synthesis of pro-inflammatory IL-8 has been determined by ELISA assay (Bender MedSystems). The quantification has been carried out using a standard curve according to .kit instructions
Interleukin-8 (IL-8) is a member of C—X—C chemokine family and plays a fundamental role in activation of neutrophil cells, thus initiating the inflammatory response. When Caco-2/TC7 cells are subjected to a treatment with inteleukin-1β (2 ng/ml) has been observed a meaningful increment (P<0.001) of IL-8 synthesis (FIG. 7).

Caco-2/TC7 cells [2] = assay: Nitric oxide (NO) release, Griess reagent; settings: pre-treated 24 h at 10 μM (soya milk: equol 10 μM), then IFN-γ 1000 U/ml + LPS 100 ng/ml for 24 h
Method: The cells have been pre-treated for 24 h with chemical compounds (10 μM) used as standards (equol, daidzein, genistein and glycitein) and soya milk, obtained from biological soya flour, not fermented or fermented using mixed selected starter, diluted at equol final concentration of 10 μM and sterile filtered. Successively, the cells have been stimulated with γ-interpheron (IFN-γ) (1000 U/ml) and lipopolysaccharide (LPS) (100 ng/ml) for 24 h. DMEM culture medium containing DMSO (1%, v/v) or methanol (0.5%, v/v) has been used as negative control. Data are the average of three triplicate experiments. Asterisk indicates meaningful differences (P<0.01) compared to negative control.
The nitric oxide release (NO) from Caco-2/TC7 cells has been determined by measuring the oxidation products, i.e. nitrite and nitrate. After incubation with the different preparations, the supernatant of cell cultures has been mixed with an equal volume of Griess reagent (1%, p/v, sulfanilic acid in 0.5 M HCl and 0.1%, p/v, N-1-naphthylethylendiamine hydrochloride). After 30 min of incubation at room temp., the absorbance at 540 nm has been measured Nitrite concentration has been determined with reference to standard curve prepared with sodium nitrite.
Preliminarily, Caco-2/TC7 cells have been treated for 24 h at concentration of 10 μM with the OFS fermented soya milk and diluted at equol final concentration of 10 μM or with not fermented soya milk. […] Successively, Caco-2/TC7 cells have been stimulated with INF-γ (1000 U/ml) e LPS (100 ng/ml) per 24 h.

Caco-2/TC7 cells [3] = assay: TEER of Caco-2/TC7 cell layer; settings: for TEER of cells stimulated with IFN-γ: IFN-γ 1000 U/ml, 24, 48 and 72 h, soya milk diluted at equol 10 μM
Method: The incubation has been carried out in the presence of γ-interpheron (IFN-γ) (1000 U/ml (-▪-); IFN-γ and soya milk, obtained from biological soya flour, not fermented (-Δ-) or fermented with the selected mixed starter, diluted at equol final concentration of 10 μM and sterile filtered. (-x-). DMEM culture medium has been used as negative control (-♦-). Data are the average of three triplicate experiments. Asterisk indicates meaningful differences (P<0.01) compared to negative control.
For TEER measurement Caco-2/TC7 cells have been inoculated (7.5×10^4 cell/ml) in a microplate container with 24 […] and a polyethylene filter (0.4 μm pore size). Before the treatment, the cells have been incubated for 21 days at 37° C. […] Integrity of cellular layer then has been determined by means of TEER measurements.
Under culture conditions of this study, Caco-2/TC7 cells develop morphological and functional characteristics of enterocytes, including tight intercellular junctions, integrity thereof being measured by TEER determination. Preliminarily, TEER has been determined in the presence of standard chemical compounds (10-100 μM), fermented OFS soya milk and diluted at equol concentration of 10 μM, or not fermented OFS soya milk. […] Treatments of Caco-2/TC7 cells with INF-γ (1000 U/ml) favoured a remarkable decrease (P<0.003) of TEER value (FIG. 6).

Caco-2/TC7 cells [4] = assay: Neutral Red uptake cytotoxicity assay; settings: standard chemical compounds 5-100 μM; vs methanol and DMSO negative control
Method: Human origin Caco-2 cells (clone TC7) have been cultured in Dulbecco (DMEM) medium, added with bovine foetal serum (10%), not essential amino acids (1%), gentamycin/streptomycin (50 μg/ml), glutamine (2 mM) and 4-2-hydroxyethyl-1-piperazinyl-ethanesulfonic acid (1%) (Di Cagno et al., 2010. Quorum sensing in sourdough Lactobacillus plantarum DC400: induction of plantaricin A (PlnA) under co-cultivation with other lactic acid bacteria and effect of PlnA on bacterial and Caco-2 cells. Proteomics in press). The cells viability has been determined by uptake assay of Neutral Red dye (Balls et al., 1987. Approaches to validation alternative methods in toxicology. In: Goldber A. M. (Ed). N.Y. Academic Press pp. 45-58). After treatment for 24-72 h with the different preparations, the cells have been washed with PBS buffer and incubated for 4 h at 37° C. with Neutral Red solution (33 mg/l). […] Plate reading has been carried out using Novapath reader (Biorad, Hercules, Calif.) (Di Cagno et al., 2010).
With the purpose to test immunomodulating properties of isoflavones-aglicones contained in soya milk produced from biological soya flour (OFS), cytotoxicity against Caco-2/TC7 cells by standard chemical compounds (equol, daidzein, genistein and glycitein) at concentrations of 5-100 μM using Neutral Red (NR) uptake assay, firstly has been evaluated.

Compound	IL-8 synthesis [1]	NO release after IFN-γ and LPS stimulation (Caco-2/TC7 cells [2])	TEER of cells stimulated with IFN-γ (Caco-2/TC7 cells [3])	cell proliferation (Neutral Red uptake) (Caco-2/TC7 cells [4])	effects on TEER without IFN-γ (Caco-2/TC7 cells [3]; equol at 100 μM, 72 h of incubation)
O=c1c(-c2ccc(O)cc2)coc2cc(O)ccc12 [daidzein]	meaningful decrement	significantly increased	has not interfered with the negative effect caused by INF-γ	–	–
O=c1c(-c2ccc(O)cc2)coc2cc(O)cc(O)c12 [genistein]	did not resulted in (P<0.10) a decrement	considerable inhibition	trend similar to fermented OFS soya milk	did not affect significantly cell proliferation	–
COc1cc2c(=O)c(-c3ccc(O)cc3)coc2cc1O [glycitein]	did not resulted in (P<0.10) a decrement	considerable inhibition	trend similar to fermented OFS soya milk	–	–
Oc1ccc([C@H]2COc3cc(O)ccc3C2)cc1 [equol]	meaningful decrement	inhibited in a marked manner	trend similar to fermented OFS soya milk	–	exception
